Measurements: US20250345378A1 (priority 2022, published 2025)
Where two headings read alike, the source gives them in different places.

What was measured:
[1] = system: 304 E. coli clinical isolates; format: cell-based, Escherichia coli
Description: (§1) Phage cocktail CK618 was tested in combination with and alongside antibiotics against two isolate panels. The first assay used a panel of 88 contemporaneous urinary tract infection (UTI) isolates from North America, Europe, Latin America, and Asia. […] The second assay used a panel made up of a 300-strain clinical isolate panel (Table 14) with an additional 4 strains of interest. […] Four of the same SOC antibiotics tested against the 88-isolate panel were tested against this panel. The non-SOC antibiotics were not included due to their limited use in clinical settings, and nitrofurantoin was not included due to the low probability of resistance to this drug.
(§2) For both isolate panels, antibiotic concentrations tested were determined by using Clinical and Laboratory Standards Institute (CLSI) or European Committee on Antimicrobial Susceptibility Testing (EUCAST) breakpoints at concentrations that kill susceptible isolates but allow intermediate or resistant isolates to grow in the standard AST microdilution assay (Table 17).
(§3) The composition of the proposed Phase 2 CRISPR-enhanced bacteriophage (CRISPR-phage, hereafter termed ‘crPhage’) cocktail (CK618) has been updated from the CK570 to include six bacteriophages as compared to three bacteriophages in CK570. Bacteriophage cocktail CK618, was prepared such that all bacteriophages had equivalent titers in the final cocktail. The cocktail was then mixed with bacteria to obtain final titers of 1×10^6 plaque-forming unit (PFU)/mL/phage for the cocktail and 1×10^5 colony-forming unit (CFU)/mL for the bacteria, resulting in a multiplicity of infection (MOI) of 10 for each bacteriophage in a sample. Briefly, 5 μl of each sample (CK618 alone, CK618 and antibiotics, antibiotics alone, or medium alone) was added to 5 μl of optical density (OD)-normalized bacterial isolate and 40 μl LB medium. Reactions were incubated at 37° C. with shaking and OD measurements were taken each hour for 20 hours.
(§4) Host range percentage is the percent of isolates that responded to treatment of antibiotics or CK618. In the case of the 88-isolate panel, results were analyzed on the complete panel as well as the subset of classified as multidrug-resistant (MDR) (n=21) and beta-lactam-resistant (n=31).
(§5) The first assay used a panel of 88 contemporaneous isolates. Twenty-one of those strains are classified as MDR, with resistance to 3 or more antibiotic classes. […] The second assay used the panel made up of a 300-strain clinical isolate panel with an additional 4 strains of interest.
(§6) Antibiotic concentrations tested were determined by using CLSI or EUCAST breakpoints at concentrations that kill susceptible strains but allow intermediate or resistant strains to grow in the standard AST microdilution assay (Table 27). LBP-EC01 v.2 was combined with bacteria resulting in a MO of 10 for each bacteriophage in a sample. In the case of the 88-isolate panel, results were analyzed on the complete panel as well as the subset of isolates classified as multidrug-resistant (MDR) (n=21) and beta-lactam-resistant (n=31).

[2] = system: 88 urinary tract infection E. coli isolates; format: cell-based, Escherichia coli; details: for Host Range % on MDR Subset (n = 21), Combination: Antibiotic + LBP-EC01 v.2 / Host Range % on all Strains (n = 88), Combination: Antibiotic + LBP-EC01 v.2 / Host Range % on Beta-lactam-Resistant Subset (n = 31), Combination: Antibiotic + LBP-EC01 v.2: antibiotic combined with LBP-EC01 v.2; for Host Range % on all Strains (n = 88), Combination: Antibiotic + CK618 v.2: antibiotic at breakpoint concentration plus cocktail 1 × 10^6 PFU/ml per bacteriophage
Description: as §1, §2, §3, §4, §5, §6

[3] = 88-isolate panel, listed as Fosfomycin 8
[4] = 88-isolate panel, listed as Fosfomycin 64
[5] = 88-isolate panel, MDR subset, single agent
[6] = 88-isolate panel, all strains, single agent
[7] = 88-isolate panel, beta-lactam-resistant subset
[8] = 88-isolate panel, beta-lactam-resistant subset, single agent
[9] = antibiotic at breakpoint concentration (Table 17), cocktail 1 × 10^6 PFU/ml per bacteriophage, MOI 10

For `C[C@@H]1O[C@@H]1P(=O)(O)O` [Fosfomycin], the “host range performance compared with antibiotics / combination (in words)” value ([1]; 88- and 304-isolate panels, all, MDR and beta-lactam-resistant strains) was “strong activity across all strains”, the “Host range % on MDR subset (n = 93), Combination: Antibiotic + LBP-CK618” value ([1]; 304-isolate panel) was 96.8% and the “Host range % on MDR subset (n = 93), Single agent treatment” value ([1]; 304-isolate panel) was 83.9%. The “Host range % on beta-lactam-resistant subset (n = 91), Combination: Antibiotic + LBP-CK618” value ([1]; 304-isolate panel) was 96.7%, the “Host range % on beta-lactam-resistant subset (n = 91), Single agent treatment” value ([1]; 304-isolate panel) was 86.8% and the “Host Range % on MDR Subset (n = 93), Combination Antibiotic + LBP-EC01 v.2” value ([1]; 304-isolate panel, MDR subset, antibiotic combined with LBP-EC01 v.2) was 96.8%. For the same compound, the “Host Range % on all Strains (n = 304), Combination: Antibiotic + LBP-EC01 v.2” value ([1]; 304-isolate panel, all strains, antibiotic combined with LBP-EC01 v.2) was 97.0%, the “Host Range % on all Strains (n = 304), Single agent treatment” value ([1]; 304-isolate panel, all strains, single agent) was 87.5% and the “Host Range % on Beta-lactam-Resistant Subset (n = 91), Combination: Antibiotic + LBP-EC01 v.2” value ([1]; 304-isolate panel, beta-lactam-resistant subset, antibiotic combined with LBP-EC01 v.2) was 96.7%. For the same compound, the “Host range % on beta-lactam-resistant subset (n = 91), Single agent treatment” value ([1]; 304-isolate panel, beta-lactam-resistant subset, single agent) was 86.8%, the “Host Range % on MDR Subset (n = 21), Combination: Antibiotic + LBP-EC01 v.2” value ([2]; 88-isolate panel, MDR subset, listed as Fosfomycin 8) was 95.2% and the “Host Range % on MDR Subset (n = 21), Combination: Antibiotic + LBP-EC01 v.2” value ([2]; 88-isolate panel, MDR subset, listed as Fosfomycin 64) was 100.0%. For the same compound, the “Host Range % on MDR Subset (n = 21), Single agent treatment” value ([2]; 88-isolate panel, MDR subset, single agent, listed as Fosfomycin 8) was 90.5%, the “Host Range % on MDR Subset (n = 21), Single agent treatment” value ([2]; 88-isolate panel, MDR subset, single agent, listed as Fosfomycin 64) was 96.8% and the “Host Range % on all Strains (n = 88), Combination: Antibiotic + LBP-EC01 v.2” value ([2]; 88-isolate panel, all strains, listed as Fosfomycin 8) was 93.9%. For the same compound, the “Host Range % on all Strains (n = 88), Combination: Antibiotic + LBP-EC01 v.2” value ([2]; 88-isolate panel, all strains, listed as Fosfomycin 64) was 98.5%, the “Host Range % on all Strains (n = 88), Single agent treatment” value ([2]; 88-isolate panel, all strains, single agent, listed as Fosfomycin 8) was 85.2% and the “Host Range % on all Strains (n = 88), Single agent treatment” value ([2]; 88-isolate panel, all strains, single agent, listed as Fosfomycin 64) was 93.2%. The “Host Range % on Beta-lactam-Resistant Subset (n = 31), Combination: Antibiotic + LBP-EC01 v.2” value ([2]; 88-isolate panel, beta-lactam-resistant subset, listed as Fosfomycin 8) was 94.6%, the “Host Range % on Beta-lactam-Resistant Subset (n = 31), Combination: Antibiotic + LBP-EC01 v.2” value ([2]; 88-isolate panel, beta-lactam-resistant subset, listed as Fosfomycin 64) was 100.0% and the “Host Range % on Beta-lactam-Resistant Subset (n = 31), Single agent treatment” value (shortened to “Host Range % … (n = 31), Single agent treatment”) ([2]; 88-isolate panel, beta-lactam-resistant subset, single agent, listed as Fosfomycin 8) was 87.1%. For the same compound, the “Host Range % … (n = 31), Single agent treatment” value ([2]; 88-isolate panel, beta-lactam-resistant subset, single agent, listed as Fosfomycin 64) was 95.7%, the “Host Range % on Beta-lactam-Resistant Subset (n = 31), Combination: Antibiotic + CK618 v.2” value [2, 3] was 94.6% and the “Host Range % … (n = 31), Single agent treatment” value [2, 3] was 87.1%. For the same compound, the “Host Range % on MDR Subset (n = 21), Combination: Antibiotic + CK618 v.2” value [2, 3] was 95.2%, the “Host Range % on MDR Subset (n = 21), Single agent treatment” value [2, 3] was 90.5% and the “Host Range % on Beta-lactam-Resistant Subset (n = 31), Combination: Antibiotic + CK618 v.2” value [2, 4] was 100.0%. The “Host Range % … (n = 31), Single agent treatment” value [2, 4] was 95.7%, the “Host Range % on MDR Subset (n = 21), Combination: Antibiotic + CK618 v.2” value [2, 4] was 100.0% and the “Host Range % on MDR Subset (n = 21), Single agent treatment” value [2, 4] was 96.8%. The “Host Range % on all Strains (n = 88), Single agent treatment” value ([2]; antibiotic at breakpoint concentration (Table 17), cocktail 1 × 10^6 PFU/ml per bacteriophage, MOI 10, listed as Fosfomycin 8) was 85.2%, the “Host Range % on all Strains (n = 88), Single agent treatment” value ([2]; antibiotic at breakpoint concentration (Table 17), cocktail 1 × 10^6 PFU/ml per bacteriophage, MOI 10, listed as Fosfomycin 64) was 93.2% and the “Host Range % on all Strains (n = 88), Combination: Antibiotic + CK618 v.2” value ([2]; listed as Fosfomycin 8) was 93.9%. The “Host Range % on all Strains (n = 88), Combination: Antibiotic + CK618 v.2” value ([2]; listed as Fosfomycin 64) was 98.5%.

For `C=CC1=C(C(=O)O)N2C(=O)[C@@H](NC(=O)/C(=N\O)c3csc(N)n3)[C@H]2SC1` [Cefdinir], the “Host Range % on Beta-lactam-Resistant Subset (n = 31), Combination: Antibiotic + CK618 v.2” value ([2]; 88-isolate panel) was 78.5%, the “Host Range % … (n = 31), Single agent treatment” value ([2]; 88-isolate panel) was 12.9% and the “Host Range % on MDR Subset (n = 21), Combination: Antibiotic + CK618 v.2” value ([2]; 88-isolate panel) was 74.6%. For the same compound, the “Host Range % on MDR Subset (n = 21), Single agent treatment” value ([2]; 88-isolate panel) was 14.3%, the “Host Range % on MDR Subset (n = 21), Combination: Antibiotic + LBP-EC01 v.2” value ([2]; 88-isolate panel, MDR subset) was 74.6% and the “Host Range % on MDR Subset (n = 21), Single agent treatment” value [2, 5] was 14.3%. The “Host Range % on all Strains (n = 88), Combination: Antibiotic + LBP-EC01 v.2” value ([2]; 88-isolate panel, all strains) was 87.5%, the “Host Range % on all Strains (n = 88), Single agent treatment” value [2, 6] was 48.9% and the “Host Range % on Beta-lactam-Resistant Subset (n = 31), Combination: Antibiotic + LBP-EC01 v.2” value [2, 7] was 78.5%. For the same compound, the “Host Range % … (n = 31), Single agent treatment” value [2, 8] was 12.9%, the “Host Range % on all Strains (n = 88), Single agent treatment” value [2, 9] was 48.9% and the “Host Range % on all Strains (n = 88), Combination: Antibiotic + CK618 v.2” value [2] was 87.5%.

For `CO/N=C(\C(=O)N[C@@H]1C(=O)N2C(C(=O)O)=C(CSc3nc(=O)c(=O)[nH]n3C)CS[C@H]12)c1csc(N)n1` [Ceftriaxone], the “Host Range % on Beta-lactam-Resistant Subset (n = 31), Combination: Antibiotic + CK618 v.2” value ([2]; 88-isolate panel) was 81.7%, the “Host Range % … (n = 31), Single agent treatment” value ([2]; 88-isolate panel) was 15.1% and the “Host Range % on MDR Subset (n = 21), Combination: Antibiotic + CK618 v.2” value ([2]; 88-isolate panel) was 77.8%. For the same compound, the “Host Range % on MDR Subset (n = 21), Single agent treatment” value ([2]; 88-isolate panel) was 20.6%, the “Host Range % on MDR Subset (n = 21), Combination: Antibiotic + LBP-EC01 v.2” value ([2]; 88-isolate panel, MDR subset) was 77.8% and the “Host Range % on MDR Subset (n = 21), Single agent treatment” value [2, 5] was 20.6%. For the same compound, the “Host Range % on all Strains (n = 88), Combination: Antibiotic + LBP-EC01 v.2” value ([2]; 88-isolate panel, all strains) was 92.4%, the “Host Range % on all Strains (n = 88), Single agent treatment” value [2, 6] was 64.4% and the “Host Range % on Beta-lactam-Resistant Subset (n = 31), Combination: Antibiotic + LBP-EC01 v.2” value [2, 7] was 81.7%. The “Host Range % … (n = 31), Single agent treatment” value [2, 8] was 15.1%, the “Host Range % on all Strains (n = 88), Single agent treatment” value [2, 9] was 64.4% and the “Host Range % on all Strains (n = 88), Combination: Antibiotic + CK618 v.2” value [2] was 92.4%.
